Counter-ions that a name gives are not always drawn.
Experiments:
EGFR(h) = EGFR(h) (Homo sapiens, UniProt P00533); assay: Kinase inhibitory activity test (per WO2011/147066); type: biochemical
[1] = test system: K562 (BCR-Abl gene rearrangement) subcutaneous tumor model; assay: In-vivo anti-tumor test, K562 subcutaneous tumor model; parameters: species or system nude mice; details: 70 mg/kg, once daily oral administration for 18 days
Method: The salt sample obtained from Example 1 was tested (specifically for FLT3-ITD acute myeloid leukemia, non-small cell lung cancer with EGFR activating mutations, or Ph-positive chronic myeloid leukemia) according to the in-vivo anti-tumor test described in the biological assessment of the patent application WO2011/147066.

Hygroscopicity test = type: physicochemical; details: 25±1° C., relative humidity 80%±2% (DVS, 80% RH)
Method: Detection instrument: XPE105DR
(1) A dry stoppered glass weighing bottle was taken, placed in a suitable constant-temperature desiccator at 25° C. 1° C. (with a saturated solution of ammonium chloride or ammonium sulfate in the lower part) or an artificial climate box (with the set temperature of 25° C.±1° C. and the relative humidity of 80%±2%) on the day before the test, and precisely weighed and recorded as the weight (m1).
(2) An appropriate amount of the test sample was taken and spread in the above-mentioned weighing bottle. The thickness of the test sample was generally about 1 mm, and the bottle was precisely weighed and recorded as the weight (m2).
(3) The stopper was removed to open the weighing bottle, and the opened weighing bottle and the stopper were placed under the above-mentioned constant temperature and humidity conditions for 24 hours.
(4) The opened weighing bottle was stoppered, precisely weighed, and recorded as the weight (m3).
Percentage increase in mass=(m3−m2)/(m2−m1)×100%
(5) The description of hygroscopicity characteristics and the definition for the weight gain due to hygroscopicity:
Deliquescence: Sufficient water was absorbed to form a liquid.
Very hygroscopic: the weight gain due to hygroscopicity was not less than 15%.
Hygroscopic: the weight gain due to hygroscopicity was less than 15% but not less than 2%.
Slightly hygroscopic: the weight gain due to hygroscopicity was less than 2% but not less than 0.2%.
Not or nearly not hygroscopic: the weight gain due to hygroscopicity was less than 0.2%.
Appropriate amounts of the salt samples obtained from Examples 1 and 3-17 were subjected to the hygroscopicity test at a temperature of 25±1° C. under a relative humidity of 80%±2%, and the results were as follows: […]

Long-term stability test = type: physicochemical; details: 25±2° C., relative humidity 60%±5%; for Content (%) / Moisture (%) / Related substances (%): packaged; for Acidity: pH value of 10 mg in 10 mL water
Method: Detection instrument: Karl Fischer moisture titrator/915 KF Ti-Touch
Test method: After the instrument was balanced, a proper amount (about 200 mg) of the test sample was taken, precisely weighed, and added to a titration cup, absolute methanol was used as the solvent, and a moisture titration solution was used for the direct measurement, and an average value was obtained by measuring each test sample twice.
Detection Instrument: High performance liquid chromatograph/Waters e2695-2489
Octadecyl silane bonded to silica gel was used as a filler (the applicable range of the pH value should be greater than 10.0), 20 mmol/L of disodium hydrogen phosphate solution (the pH value was adjusted to 10.0 with sodium hydroxide)-acetonitrile (65:35) was used as the mobile phase; the detection wavelength was 287 nm, and the column temperature was 30° C. The number of theoretical plates should be not less than 3000.
Determination method: About 20 mg of the sample was taken and precisely weighed, put in a 100 mL volumetric flask. A diluent (50% methanol/water) was added to dissolve and dilute the sample to the scale. The content was shaken uniformly, and 10 μL was precisely metered and injected into a liquid chromatograph, and the chromatogram was recorded; another appropriate amount of the reference substance was taken, and the same method was used for determination. The result was obtained by calculating the peak area according to the external standard method.
Detection instrument: Mettler Toledo S210-K pH meter
Test method: Based on the operation according to the pH value measurement method, 10 mg of a sample was precisely weighed, then 10 mL of freshly boiled and cooled purified water was added to dissolve the sample, and the mixture was shaken uniformly, and then the pH value was measured.
12. Measurement of Related Substances
Detection instrument: High performance liquid chromatograph/Waters e2695-2489
Chromatographic Conditions:
Octadecylsilane bonded to silica gel was used as a filler (Model: Waters Xbridge C18 chromatographic column, with a length of 250 mm, an inner diameter of 4.6 mm, and a filler particle size of 5 μm), the detection wavelength was 250 nm, the column temperature was 35° C., and the flow rate was 1.0 mL/minute, the mobile phase A was 0.02 mol/L of a disodium hydrogen phosphate solution (the pH value was adjusted to 10.0 with a sodium hydroxide solution), the mobile phase B was acetonitrile, and the diluent was methanol, and the temperature of the sample plate was 4° C.
Test method: The system applicability test was performed according to the requirements, and the test sample solution, the control solution, and the sensitivity solution were prepared. Each 10 μL of the control solution and the test sample solution were precisely metered and injected into a liquid chromatograph, and the chromatogram was recorded. The result was obtained by calculating the peak area according to the self-dilution control method with the correction factor.
An appropriate amount of the salt sample obtained from Example 1 was taken, a medicinal low-density polyethylene sack was used as the internal packaging, and a polyester/aluminum/polyethylene composite bag for medicine packaging was used as the external packaging. Samples were taken respectively at the end of the 3rd, 6th, 9th, 12th, and 18th months after being stored at a temperature of 25±2° C. under a relative humidity of 60%±5%. The appearances were compared, followed by measuring other investigation indexes. The results were compared with those measured in the 0th month.

DSC and TGA tests = type: physicochemical; details: onset temperature
Method: 6. Differential Scanning Calorimetry-Thermogravimetric Analysis (DSC-TGA)
Detection instrument: NETZSCH STA 449F3
Temperature range: 20° C.-350° C.;
Heating rate: 10.0 (K/min);
7. Differential Scanning Calorimetry (DSC)
Detection instrument: NETZSCH DSC 214 Polyma
Temperature range: 20° C.-250° C.;
Heating rate: 5.0 (K/min);
8. Thermogravimetric Analysis (TGA)
Detection instrument: METTLER and SDT Q600
The salts obtained in Examples 1 and 3-17 and the compound represented by Formula 1 were subjected to the DSC and TGA tests in media, and the test results were shown in the following table: […]

EGFR(h), sequence (P00533 25-1210): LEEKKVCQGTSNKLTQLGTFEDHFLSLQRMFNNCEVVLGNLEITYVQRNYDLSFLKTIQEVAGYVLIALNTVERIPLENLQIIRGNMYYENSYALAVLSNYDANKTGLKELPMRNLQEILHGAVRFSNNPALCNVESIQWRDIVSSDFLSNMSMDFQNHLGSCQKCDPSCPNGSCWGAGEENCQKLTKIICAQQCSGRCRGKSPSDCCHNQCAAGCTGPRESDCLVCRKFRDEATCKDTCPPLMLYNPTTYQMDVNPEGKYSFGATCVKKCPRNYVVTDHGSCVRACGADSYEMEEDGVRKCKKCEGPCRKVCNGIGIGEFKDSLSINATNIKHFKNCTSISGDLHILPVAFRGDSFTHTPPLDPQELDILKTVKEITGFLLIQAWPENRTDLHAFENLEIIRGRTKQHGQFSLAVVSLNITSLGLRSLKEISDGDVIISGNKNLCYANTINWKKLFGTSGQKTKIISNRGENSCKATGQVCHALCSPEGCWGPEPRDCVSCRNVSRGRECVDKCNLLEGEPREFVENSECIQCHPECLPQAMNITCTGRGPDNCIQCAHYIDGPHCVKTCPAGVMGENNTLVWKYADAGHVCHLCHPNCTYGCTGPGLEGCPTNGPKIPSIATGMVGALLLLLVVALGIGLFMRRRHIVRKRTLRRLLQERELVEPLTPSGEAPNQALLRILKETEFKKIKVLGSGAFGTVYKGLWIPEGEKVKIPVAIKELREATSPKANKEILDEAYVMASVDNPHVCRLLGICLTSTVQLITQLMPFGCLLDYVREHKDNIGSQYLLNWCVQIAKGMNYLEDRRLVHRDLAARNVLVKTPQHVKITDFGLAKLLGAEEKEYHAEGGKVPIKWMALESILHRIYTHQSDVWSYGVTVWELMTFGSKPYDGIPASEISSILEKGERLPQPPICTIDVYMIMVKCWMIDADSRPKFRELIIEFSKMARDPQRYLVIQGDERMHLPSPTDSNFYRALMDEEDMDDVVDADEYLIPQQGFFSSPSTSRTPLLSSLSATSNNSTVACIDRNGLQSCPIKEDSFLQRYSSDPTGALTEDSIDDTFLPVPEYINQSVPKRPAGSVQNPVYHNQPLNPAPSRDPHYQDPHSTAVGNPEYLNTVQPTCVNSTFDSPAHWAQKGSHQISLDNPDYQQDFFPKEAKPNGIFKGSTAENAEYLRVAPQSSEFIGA

## CC(C)n1c(Nc2cccnc2)nc2cnc(Nc3ccc(N4CCN(C)CC4)cc3)nc21 [Example 1, arylaminopurine derivative.trihydrochloride.pentahydrate]
EGFR(h)
  IC50: 42 nM
[1]
  tumor growth: effectively inhibit the tumor growth
  tumor inhibition rate: 71.3%
Hygroscopicity test
  Hygroscopicity: Slightly hygroscopic (the weight gain due to hygroscopicity was less than 2% but not less than 0.2%.)
  Weight gain due to hygroscopicity: 0.7%
Long-term stability test; 0 Month
  Content (%): 100.9%
  Moisture (%): 13.9%
  Related substances (%): 0.33%
  Acidity: 3.1
Long-term stability test; 3 Month
  Content (%): 100.4%
  Moisture (%): 13.9%
  Related substances (%): 0.34%
  Acidity: 3.3
Long-term stability test; 6 Month
  Content (%): 100.8%
  Moisture (%): 14.3%
  Related substances (%): 0.34%
  Acidity: 3.3
Long-term stability test; 9 Month
  Content (%): 101.7%
  Moisture (%): 14.3%
  Related substances (%): 0.31%
  Acidity: 3.3
Long-term stability test; 12 Month
  Content (%): 99.6%
  Moisture (%): 13.9%
  Related substances (%): 0.34%
  Acidity: 3.3
Long-term stability test; 18 Month
  Content (%): 100.2%
  Moisture (%): 14.2%
  Related substances (%): 0.26%
  Acidity: 3.3
DSC and TGA tests
  TGA: starting to lose the acid: ~140 °C (see FIG. 19)
  TGA: starting to lose the water of crystallization: crystallization at about 40° C.;

Reference: patent publication US20230144619A1, “SALT OF ARYLAMINOPURINE DERIVATIVE, PREPARATION METHOD THEREFOR AND USE THEREOF” (CSPC Zhongqi Pharmaceutical Technology (Shijiazhuang) Co., …, priority 2020, published 2023)
